The test system of data set [1] is Ba/F3 BCR-ABL1 Q252H/T315I. Put plainly: Cell growth inhibition activity test, single agents and combinations (CellTiter-Glo, Chou-Talalay). Format: cell-based, mouse. Conditions: for IC50: Mus musculus, BaF3, 72 h. Here is the method: (§1) A series of cell lines expressing BCR-ABL1 single mutations and compound mutations were constructed based on the Ba/F3 mouse pro-B cell line.
(§2) This assay utilized the CellTiter-Glo (CTG) kit provided by Promega, which is a homogeneous method for cell viability detection, measuring the viability of cultured cells by quantifying ATP. Cells were seeded in 96-well plates and treated with different concentrations of test substances. […] At the end of the treatment, CTG reagent (CellTiter-Glo kit) was added according to the manufacturer's instructions to detect cell viability values. Plates were read on a microplate reader (Biotek cytation 3.0). IC50 values were calculated using GraphPad Prism 7.0 software.

A further data set has as its system Ba/F3 BCR-ABL1 T315M. Described as above. In kind it is cell-based, mouse. Here is the method: as §1, §2
The test system of data set [2] is Ba/F3 BCR-ABL1 Y253H/T315I. The data set is described as above. Format: cell-based, mouse. Conditions: Mus musculus; for IC90: Fig. 3. The method, then: as §1, §2
For data set [3] the following is noted: clinical dose of 45 mg QD; cited from earlier work.
Data set [4] is described as follows: Tissue distribution study using quantitative whole-body autoradiography (QWBA). In kind it is in vivo, Long-Evans rats and Sprague-Dawley rats. Conditions: single oral 50 mg/100 µCi/kg. Here is the method: This test utilized a total of 8 male Long Evans (LE) rats, randomly designated as Gt1M01 to Gt1M08; and 4 Sprague-Dawley (SD) rats, with an equal number of males and females, randomly designated as Gt2M01 to Gt2M02 and Gt2F01 to Gt2F02. Each rat received a single oral dose of 50 mg/100 µCi/kg of [^14C]-Compound A via gavage. SD rats were euthanized at 4 hours and 72 hours post-dose (with the 72-hour rats serving as backups); LE rats were euthanized at 0.5 hours, 4 hours, 24 hours, 72 hours, 168 hours, 336 hours, 504 hours, and 840 hours post-dose (with the 504-hour and 840-hour rats serving as backups). According to the rat sequence numbers, one male and one female SD rat and one male LE rat were transferred to an induction chamber, euthanized with an overdose of carbon dioxide, and about 4 mL of whole blood was collected via cardiac puncture. Immediately after blood collection, the carcasses were immersed in a dry ice-hexane bath for freezing and fixation.
Plasma samples were obtained by low-temperature centrifugation of whole blood. After homogenization, aliquots of each plasma sample were mixed directly with scintillation fluid, and the radioactivity was measured using a liquid scintillation counter (LSC). Frozen carcasses were sectioned, dried, and exposed/developed to determine total radioactivity in tissues/regions (including gastrointestinal contents). Pharmacokinetic parameters for total radioactivity in plasma and tissues were calculated using a non-compartmental model with WinNonLin software (version 8.3, Certara). After development of sections at each time point, 46 tissues/regions (including gastrointestinal contents) were analyzed for LE rats, and 45 tissues/regions (including gastrointestinal contents) were analyzed for SD rats. The radioactivity concentrations in unanalyzed regions were all lower than the lowest concentration in the analyzed tissues or regions.

Data set [5] deals with Ba/F3 BCR-ABL1 E255V/T315I. Put plainly: Cell growth inhibition activity test, single agents and combinations (CellTiter-Glo, Chou-Talalay). In kind it is cell-based. Conditions: Mus musculus, BaF3, 72 h. The method, then:
as §1, §2
(In ATP-based viability assays light output follows the ATP content of the culture.)

We go through 5 compounds from patent EP4803080A1, “METHOD FOR TREATING LEUKEMIA” (Shenzhen TargetRx Co., Ltd., priority 2023, dated 2025).

SMILES strings stand for the structures. Where two headings read alike, the source gives them in different places.

Take `Cc1ccc(C(=O)Nc2ccc(CN3CCN(C)CC3)c(C(F)(F)F)c2)cc1C#Cc1cnc2cccnn12` [ponatinib]: in data set [1] (single-agent ponatinib at 60 nM and 48 nM, Fig. 5), the “inhibition of cell viability” value is “could be inhibited”. Also, the anti-proliferative effect result in the data set on Ba/F3 BCR-ABL1 T315M (single-agent ponatinib, Fig. 6) was “no anti-proliferative effect”. In addition, the IC90 in data set [2] (BaF3, read-out: IC90 value of ponatinib, ponatinib in combination with asciminib) was found to be 165 nM; in data set [2] (BaF3, read-out: IC90 value of ponatinib, ponatinib in combination with compound A), 60.9 nM. Moreover, the “minimum plasma concentration at steady state (Cssmin)” value in data set [3] is listed as 64.3 nM.

On to `O=C(Nc1ccc(OC(F)(F)Cl)cc1)c1cnc(N2CC[C@@H](F)C2)c(-c2cnccn2)c1` [[14C]-Compound A], for which the “Total Radioactivity, Plasma” value in data set [4] (Female SD rats, 4 hrs) turned out to be 15320 ng Eq./g; in data set [4] (Male LE rats, 0.5 hrs) it was 7131 ng Eq./g; in data set [4] (Male LE rats, 4 hrs) it was 11981 ng Eq./g; in data set [4] (Male SD rats, 4 hrs), 10656 ng Eq./g. The “Total Radioactivity, Whole brain” value in data set [4] (Female SD rats, 4 hrs) worked out at 9800 ng Eq./g; in data set [4] (Male LE rats, 0.5 hrs), 4885 ng Eq./g; in data set [4] (Male LE rats, 4 hrs), 6950 ng Eq./g; in data set [4] (Male SD rats, 4 hrs) it was 6400 ng Eq./g.

Consider `Cc1ccc(C(=O)Nc2ccc(CN3CCN(C)CC3)c(C(F)(F)F)c2)cc1C#Cc1cnc2[nH]ncc2c1` [olverembatinib], for which the half-maximal inhibitory concentration (IC50) in data set [1] stood at 7.7 ± 0.01 nM; in data set [2] (BaF3, 72 h, read-out: IC50^I1), 36.9 nM; in data set [2] (BaF3, read-out: IC50^I2), 5.44 nM; in data set [5] it was 25.8 ± 2.9 nM.

Take `COc1cc(Nc2c(C#N)cnc3cc(OCCCN4CCN(C)CC4)c(OC)cc23)c(Cl)cc1Cl` [bosutinib]: the 50% inhibitory concentration (IC50) in data set [1] was determined as 3130 ± 9.9 nM; in the data set with Ba/F3 BCR-ABL1 T315M (Mus musculus, BaF3, 72 h), 3.97 ± 0.151 µM; in data set [2] (BaF3, 72 h) it was 3715 ± 9.9 nM; in data set [5] it was 3920 ± 1380 nM.

As for `Cc1ncc(NC(=O)c2ccc(CN3CCN(C)CC3)c(C(F)(F)F)c2)cc1Nc1nccc(-c2cccnc2)n1` [flumatinib], the half-maximal inhibitory concentration (IC50) in data set [2] (BaF3, 72 h, single agent, Y253H/T315I, 72 hours, read-out: IC50) was 8420 ± 245 nM.

As usually defined, the IC90 is the concentration needed for an effect of 90%. The IC50 is the concentration at which inhibition is half-maximal.
